Where a name gives a salt, the structure may show the parent alone.

Data set [1] concerns the target T1, recombinant human Meningioma Expressed Antigen 5 (MGEA5), also referred to as O-GcNAcase (OGA) (Homo sapiens, UniProt O60502).
T1 construct: Full length OGA enzyme was purchased at OnGene (cat #TP322411); purchased OnGene (so in the source)
T1 sequence (O60502 1-916): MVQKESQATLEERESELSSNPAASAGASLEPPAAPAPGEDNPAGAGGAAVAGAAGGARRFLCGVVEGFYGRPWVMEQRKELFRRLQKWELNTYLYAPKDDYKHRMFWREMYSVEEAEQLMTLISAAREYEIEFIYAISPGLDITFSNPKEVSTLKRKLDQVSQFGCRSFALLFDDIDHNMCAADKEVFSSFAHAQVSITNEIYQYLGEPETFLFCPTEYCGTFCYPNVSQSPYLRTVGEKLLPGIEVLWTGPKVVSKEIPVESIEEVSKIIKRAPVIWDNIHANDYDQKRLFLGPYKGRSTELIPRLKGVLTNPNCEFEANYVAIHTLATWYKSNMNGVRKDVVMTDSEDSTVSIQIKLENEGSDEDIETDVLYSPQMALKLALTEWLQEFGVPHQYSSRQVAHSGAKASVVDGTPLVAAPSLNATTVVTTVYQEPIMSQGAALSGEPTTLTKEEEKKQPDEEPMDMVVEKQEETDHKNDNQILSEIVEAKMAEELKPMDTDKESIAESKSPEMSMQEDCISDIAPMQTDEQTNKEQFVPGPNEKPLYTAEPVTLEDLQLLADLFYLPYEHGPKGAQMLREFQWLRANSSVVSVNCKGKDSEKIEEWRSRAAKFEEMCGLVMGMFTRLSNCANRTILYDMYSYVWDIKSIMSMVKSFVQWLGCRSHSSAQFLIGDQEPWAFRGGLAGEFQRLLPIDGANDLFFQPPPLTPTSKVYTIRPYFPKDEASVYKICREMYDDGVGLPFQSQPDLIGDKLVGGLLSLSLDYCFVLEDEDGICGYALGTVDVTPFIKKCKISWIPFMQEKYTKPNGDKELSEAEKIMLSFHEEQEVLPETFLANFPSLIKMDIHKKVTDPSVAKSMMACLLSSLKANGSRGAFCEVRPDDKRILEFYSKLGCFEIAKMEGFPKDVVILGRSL
Nature of the data set: OGA biochemical assay (inhibition of FM-GlcNAc hydrolysis, fluorescence). The following applies: FM-GlcNAc substrate; for Emax: read-out: Enzymatic Emax (%); for IC50: read-out: Enzymatic hOGA, pIC50 (converted). Summed up:
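Full-length recombinant human OGA (2 nM) pre-incubated 60 min with compound, then FM-GlcNAc (100 uM final) added in 200 mM citrate/phosphate pH 7.2 with 0.005% Tween-20; 6 h at room temperature, stopped with pH 11.0 carbonate. Fluorescein read at ex 485/em 538 nm; IC50 and Hill coefficient from curve fit against no-inhibitor and saturating-standard controls.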

A further data set deals with T2, OGA (Homo sapiens, UniProt O60502).
T2 construct: endogenous in cells; host or cells: HEK293 cells inducible for P301L mutant human Tau (isoform 2N4R)
T2 sequence (O60502 1-916): T1 sequence (O60502 1-916)
Nature of the data set: OGA cellular assay (ICC detection of O-GlcNAcylated proteins in HEK293 cells inducible for P301L mutant human Tau). Type of data set: cell-based. The following applies: 6 hours incubation; for Emax: HEK293, HEK293 cells inducible for P301L mutant human Tau; for Emax / Cellular Emax (%): maximum = Thiamet G 200 uM; for EC50: read-out: Cellular hOGA, pEC50 (converted). As for the experimental part: HEK293 cells inducible for P301L mutant human Tau (isoform 2N4R) were established at Janssen. Thiamet-G was used for both plate validation (high control) and as reference compound (reference EC50 assay validation). OGA inhibition is evaluated through the immunocytochemical (ICC) detection of O-GlcNAcylated proteins by the use of a monoclonal antibody (CTD110.6; Cell Signaling, #9875) detecting O-GlcNAcylated residues as previously described (Dorfmueller et al. 2010 Chemistry & biology, 17:1250). Inhibition of OGA will result in an increase of O-GlcNAcylated protein levels resulting in an increased signal in the experiment. Cell nuclei are stained with Hoechst to give a cell culture quality control and a rough estimate of immediate compounds toxicity, if any. ICC pictures are imaged with a Perkin Elmer Opera Phenix plate microscope and quantified with the provided software Perkin Elmer Harmony 4.1.
Cells were propagated in DMEM high Glucose (Sigma, #D5796) following standard procedures. 2 days before the cell assay cells are split, counted and seeded in Poly-D-Lysine (PDL) coated 96-wells (Greiner, #655946) plate at a cell density of 12,000 cells per cm^2 (4,000 cells per well) in 100 μl of Assay Medium (Low Glucose medium is used to reduce basal levels of GlcNAcylation) (Park et al. 2014 The Journal of biological chemistry 289:13519). At the day of compound test medium from assay plates was removed and replenished with 90 μl of fresh Assay Medium. 10 μl of compounds at a 10 fold final concentration were added to the wells. Plates were centrifuged shortly before incubation in the cell incubator for 6 hours. DMSO concentration was set to 0.2%. Medium is discarded by applying vacuum. For staining of cells medium was removed and cells washed once with 100 μl D-PBS (Sigma, #D8537). From next step onwards unless other stated assay volume was always 50 μl and incubation was performed without agitation and at room temperature. Cells were fixed in 50 μl of a 4% paraformaldehyde (PFA, Alpha aesar, #043368) PBS solution for 15 minutes at room temperature. […] Before analysis samples were washed 2 times manually for 5 minutes in ICC base buffer.
Imaging is performed using Perkin Elmer Phenix Opera using a water 20×objective and recording 9 fields per well. Intensity readout at 488 nm is used as a measure of O-GlcNAcylation level of total proteins in wells. To assess potential toxicity of compounds nuclei were counted using the Hoechst staining. IC50-values are calculated using parametric non-linear regression model fitting. As a maximum inhibition Thiamet G at a 200 uM concentration is present on each plate. In addition, a concentration response of Thiamet G is calculated on each plate.

The mark [2] stands for this setting: HEK293 cells inducible for P301L mutant human Tau.

Usually melting point stands for the temperature of the solid-liquid transition. For `CC(=O)Nc1ccnc(CN2CCC[C@H](Cc3cc(C)nc(C)c3)C2)c1` (as salt: HCl) [Product 31], the melting point came out at 133 °C.
`CC(=O)Nc1ccnc(C(C)N2CCC[C@H](Cc3cc(C)nc(C)c3)C2)c1` (stereo partly shown) (as salt: HCl) [Product 32] showed a melting point of 138 °C.
For the molecule `CC(=O)Nc1cncc(CN2CCC[C@H](Cc3cc(C)nc(C)c3)C2)c1` (as salt: HCl) [Product 34], the melting point was found to be 186.5 °C.
As to `CC(=O)Nc1cc(CN2CCC[C@H](Cc3cc(C)nc(C)c3)C2)cnn1` (as salt: HCl) [Product 62], the melting point stood at 206.5 °C.
Same read-out and setting: the figure for `CC(=O)Nc1cc(C(C)N2CCCC(CNc3cc(C)nc(C)c3)C2)[nH]n1` (stereo not shown) (as salt: HCl) [Product 83] is 245 °C; for `COc1ccc(F)c(C(C)N2CCCC(CNc3cc(C)nc(C)c3)C2)n1` (stereo not shown) (as salt: HCl) [Product 86] it is 206.8 °C; for `COc1ccc(F)c(C(C)N2CCCC(CNc3cc(C)nc(C(F)(F)F)c3)C2)n1` (stereo not shown) (as salt: HCl) [Product 96] it is 211.6 °C.
Still for that read-out and setting: the figure for `CC(=O)Nc1cc(CN2CCCC(COc3cc(C)nc(C)c3)C2)n[nH]1` (stereo not shown) (as salt: hydrochloric acid salt) [Product 119] is 192.2 °C.
On the same count and under the same terms, the figure for `CC(=O)Nc1cc(C(C)N2CCC[C@H](Cc3cc(C)nc(C)c3)C2)cnc1C` (mixture of isomers) (as salt: HCl) [Product 33] is 147.5 °C; for `CCC(=O)Nc1cncc(C(C)N2CCC[C@H](Cc3cc(C)nc(C)c3)C2)c1` (mixture of isomers) (as salt: HCl) [Product 38] it is 188.1 °C; for `CNC(=O)c1cncc(C(C)N2CCC[C@H](Cc3cc(C)nc(C)c3)C2)c1` (mixture of isomers) (as salt: HCl) [Product 40] it is 251.2 °C.
`COc1cncc(C(C)N2CCC[C@H](Cc3cc(C)nc(C)c3)C2)c1` (mixture of isomers) (as salt: HCl) [Product 43]: the melting point amounted to 161.4 °C.
`CCOc1cncc(C(C)N2CCC[C@H](Cc3cc(C)nc(C)c3)C2)c1` (mixture of isomers) (as salt: HCl) [Product 44]: the melting point was found to be 138 °C.
The same measure, in the same setting: the figure for `COc1cc(NC[C@H]2CCCN(C(C)c3nc(OC)ccc3F)C2)cc(C)n1` (mixture of isomers) (as salt: HCl) [Product 90] is 151.3 °C.
The term Emax denotes the greatest response seen or fitted, relative to the assay's reference. The molecule `CCOc1cc(CN2CCC[C@H](Cc3cc(C)nc(C)c3)C2)n[nH]1` [Product 14] returned a melting point of 112.89 °C. Besides, in data set [1], the Emax amounted to 81% and the IC50 is 2750 nM.
Turning to `COc1ccc(F)c(C(C)N2CCCC(c3cc(C)nc(C)c3)C2)n1` (stereo not shown) [Product 74], in data set [1], the Emax is 102% and the IC50 is 35.5 nM. The Emax on OGA amounted to 48%. Moreover, the EC50 at OGA (setting [2]) is 676 nM.
Turning to `COc1cc(C[C@H]2CCCN(C(C)c3nc(OC)ccc3F)C2)cc(C)n1` (stereo partly shown) [Product 76], the “Enzymatic Emax (%)” value in data set [1] (listed as 76) worked out at 101%. Moreover, the IC50 in data set [1] is 52.5 nM. In addition, on OGA (HEK293 cells inducible for P301L mutant human Tau, listed as 76), the “Cellular Emax (%)” value is reported as 30%. Besides, the EC50 on OGA (setting [2]) is greater than 1000 nM.
In the case of `COc1ccc(F)c(C(C)N2CCC[C@H](Cc3cc(C)nc(C(F)(F)F)c3)C2)n1` (stereo partly shown) [Product 77], in data set [1], the “Enzymatic Emax (%)” value worked out at 101% and the IC50 is 14.8 nM. Moreover, the Emax at OGA is 49%. In addition, the EC50 at OGA (setting [2]) is 955 nM.
As for `CC(=O)Nc1cc(C(C)N2CCCC(Oc3cc(C)nc(C)c3)C2)n[nH]1` (stereo not shown) [Product 80], the Emax turned out to be 102% in data set [1] and 7% at OGA. The IC50 in data set [1] is 102 nM. On OGA (setting [2]), the EC50 is greater than 1000 nM.
The matching figures for `COc1ccc(F)c(C(C)N2CCCC(Oc3cc(C)nc(C(F)(F)F)c3)C2)n1` (stereo not shown) [Product 82]: 97%, 6%, 891 nM and greater than 1000 nM.
The like results for `COc1ccc(F)c(C(C)N2CCCC(CNc3cc(C)nc(C)c3)C2)n1` (stereo not shown) [Product 86] were, in that order, 102%, 94%, 17 nM and 56.2 nM.
As to `CC(=O)Nc1cc(C(C)N2CCCC(CNc3cc(C)nc(C(F)(F)F)c3)C2)[nH]n1` (stereo not shown) [Product 91], the melting point turned out to be 261.7 °C. Besides, in data set [1], the Emax came to 104% and the IC50 was 129 nM.
For the molecule `COc1cccc([C@H](C)N2CCC[C@@H](CNc3cc(C)nc(C(F)(F)F)c3)C2)n1` [Product 95], in data set [1], the “Enzymatic Emax (%)” value amounted to 103% and the “Enzymatic hOGA; pIC50” value was found to be 7.8. At OGA (setting [2]), the “Cellular hOGA; pEC50” value is less than 6 and the “Cellular Emax (%)” value is on record as 44%.
Take `COc1ccc(F)c(C(C)N2CCCC(CNc3cc(C)nc(C(F)(F)F)c3)C2)n1` (stereo not shown) [Product 96]: the results for the Emax (in data set [1]; on OGA) were 104% and 23%, respectively. In data set [1], the IC50 is 13.5 nM. Moreover, the EC50 at OGA (setting [2]) was greater than 1000 nM.
On to `CC(=O)Nc1cc(C(C)N2CCCC(Oc3ncc(C)nc3C)C2)n[nH]1` (stereo not shown) [Product 117], for which the Emax in data set [1] came to 102%; at OGA, 30%. The IC50 in data set [1] was 64.6 nM. Further, on OGA (setting [2]), the EC50 was greater than 1000 nM.
On to `COc1cc(C[C@H]2CCCN(C(C)c3nc(OC)ccc3F)C2)cc(C)n1` (stereo partly shown) [Product 118], for which, in data set [1], the Emax was 99% and the IC50 is 87.1 nM. Moreover, at OGA (HEK293 cells inducible for P301L mutant human Tau, listed as 118), the “Cellular Emax (%)” value came to 82%. Moreover, the EC50 at OGA (setting [2]) was 219 nM.
Regarding `COc1ccc(F)c(C(C)N2CCCC(Oc3cc(C)nc(C)c3)C2)n1` (stereo not shown) [Product 137], in data set [1], the Emax was found to be 102% and the IC50 is 107 nM. Moreover, the Emax at OGA was 4%. In addition, the EC50 at OGA (setting [2]) is greater than 1000 nM.
Take `CCOc1cc(CN2CCC[C@H](Cc3cc(C)nc(C)c3)C2)n(C)n1` [Product 162]: the “Enzymatic Emax (%)” value in data set [1] is reported as 36%. Moreover, the Emax on OGA is -6%. Besides, the EC50 on OGA (setting [2]) was greater than 1000 nM.

Source of the values: patent US20210300900A1, “OGA INHIBITOR COMPOUNDS” (Janssen Pharmaceutica NV, priority 2018, published 2021).
